Results taken from ChEMBL document CHEMBL1201862, “PubChem BioAssay data set” (2004).
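A five-concentration, 48-hour dose response in 96-well plates underlies each endpoint, interpolated linearly between surrounding concentrations. GI50 marks 50% less growth.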 Active and inactive are the calls of the source. Cut-off read from the data, not from the text of the source: active = GI50 up to about 1.1 µM and inactive = higher.

Tests used:
Assay in all cases: NCI-60 cell line screen, 48 h
[1] = test system: SF-539
[2] = test system: EKVX
[3] = test system: UO-31
[4] = test system: MOLT-4
[5] = test system: SNB-19
[6] = test system: HCC 2998
[7] = test system: UACC-62
[8] = test system: KM12
[9] = test system: NCI-H23
[10] = test system: HOP-92
[11] = test system: SK-MEL-5
[12] = test system: M14
[13] = test system: NCI/ADR-RES
[14] = test system: CAKI-1
[15] = test system: DU-145
[16] = test system: 786-0
[17] = test system: NCI-H522
[18] = test system: HOP-62
[19] = test system: SNB-75
[20] = test system: HCT-116

## O=C(Nc1ccccc1)c1cc(S(=O)(=O)N2CCNC2=O)c(S)cc1Cl
[1]
  GI50: > 100 µM (inactive)
[2]
  GI50: > 100 µM (inactive)
[3]
  GI50: > 100 µM (inactive)
[4]
  GI50: > 100 µM (inactive)
[5]
  GI50: > 100 µM (inactive)
[6]
  GI50: > 100 µM (inactive)
[7]
  GI50: > 100 µM (inactive)
[8]
  GI50: > 100 µM (inactive)
[9]
  GI50: > 100 µM (inactive)
[10]
  GI50: > 100 µM (inactive)
[11]
  GI50: > 100 µM (inactive)
[12]
  GI50: > 100 µM (inactive)
[13]
  GI50: > 100 µM (inactive)
[14]
  GI50: 36.6 µM (inactive)
[15]
  GI50: > 100 µM (inactive)
[16]
  GI50: > 100 µM (inactive)
[17]
  GI50: 23.2 µM (inactive)
[18]
  GI50: > 100 µM (inactive)
[19]
  GI50: > 100 µM (inactive)
[20]
  GI50: > 100 µM (inactive)

## C[C@]12CC[C@H]3[C@@H](CC=C4C[C@@H](N5CCCC5)CC[C@@]43C)[C@@H]1C[C@H](N1CCCCC1)[C@@H]2O
[1]
  GI50: 39.7 µM (inactive)
[2]
  GI50: > 100 µM (inactive)
[3]
  GI50: > 100 µM (inactive)
[4]
  GI50: > 100 µM (inactive)
[5]
  GI50: > 100 µM (inactive)
[6]
  GI50: 31.6 µM (inactive)
[7]
  GI50: > 100 µM (inactive)
[8]
  GI50: > 100 µM (inactive)
[9]
  GI50: > 100 µM (inactive)
[10]
  GI50: 83.8 µM (inactive)
[11]
  GI50: 51.1 µM (inactive)
[12]
  GI50: 20.3 µM (inactive)
[13]
  GI50: > 100 µM (inactive)
[14]
  GI50: > 100 µM (inactive)
[15]
  GI50: > 100 µM (inactive)
[16]
  GI50: 91.8 µM (inactive)
[17]
  GI50: > 100 µM (inactive)
[18]
  GI50: > 100 µM (inactive)
[19]
  GI50: > 100 µM (inactive)
[20]
  GI50: 91.4 µM (inactive)

## CCN(CC)c1ccc(NC(=S)NN(C)C)cc1
[1]
  GI50: > 10 µM (inactive)
[2]
  GI50: > 10 µM (inactive)
[3]
  GI50: > 10 µM (inactive)
[4]
  GI50: > 10 µM (inactive)
[5]
  GI50: > 10 µM (inactive)
[6]
  GI50: > 10 µM (inactive)
[7]
  GI50: > 10 µM (inactive)
[8]
  GI50: > 10 µM (inactive)
[9]
  GI50: > 10 µM (inactive)
[10]
  GI50: > 10 µM (inactive)
[11]
  GI50: > 10 µM (inactive)
[12]
  GI50: > 10 µM (inactive)
[13]
  GI50: > 10 µM (inactive)
[14]
  GI50: > 10 µM (inactive)
[15]
  GI50: > 10 µM (inactive)
[16]
  GI50: > 10 µM (inactive)
[17]
  GI50: > 10 µM (inactive)
[18]
  GI50: > 10 µM (inactive)
[19]
  GI50: > 10 µM (inactive)
[20]
  GI50: > 10 µM (inactive)

## C=CC[C@]12C=C(OC)[C@@H](O)[C@](OC)(C(c3cc(OC)c4c(c3)OCO4)[C@H]1C)[C@H]2OC(C)=O (stereo not given in full)
[1]
  GI50: > 100 µM (inactive)
[2]
  GI50: > 100 µM (inactive)
[3]
  GI50: 89.3 µM (inactive)
[4]
  GI50: 67.5 µM (inactive)
[5]
  GI50: > 100 µM (inactive)
[6]
  GI50: > 100 µM (inactive)
[7]
  GI50: > 100 µM (inactive)
[8]
  GI50: > 100 µM (inactive)
[9]
  GI50: > 100 µM (inactive)
[10]
  GI50: 83.6 µM (inactive)
[11]
  GI50: > 100 µM (inactive)
[12]
  GI50: > 100 µM (inactive)
[13]
  GI50: > 100 µM (inactive)
[14]
  GI50: > 100 µM (inactive)
[15]
  GI50: > 100 µM (inactive)
[16]
  GI50: > 100 µM (inactive)
[17]
  GI50: > 100 µM (inactive)
[18]
  GI50: > 100 µM (inactive)
[19]
  GI50: 40.7 µM (inactive)
[20]
  GI50: > 100 µM (inactive)

## C=CCNC1=C2C[C@@H](C)C[C@@H](OC)[C@H](OC(=O)CN)[C@H](C)/C=C(\C)[C@@H](OC(N)=O)[C@H](OC)/C=C\C=C(/C)C(=O)NC(=CC1=O)C2=O
[1]
  GI50: 0.883 µM (active)
[2]
  GI50: 5.77 µM (inactive)
[3]
  GI50: 5.87 µM (inactive)
[4]
  GI50: 1.21 µM (inactive)
[5]
  GI50: 5.4 µM (inactive)
[6]
  GI50: 0.27 µM (active)
[7]
  GI50: 0.381 µM (active)
[8]
  GI50: 0.27 µM (active)
[9]
  GI50: 0.48 µM (active)
[10]
  GI50: 3.41 µM (inactive)
[11]
  GI50: 0.476 µM (active)
[12]
  GI50: 0.371 µM (active)
[13]
  GI50: 36.1 µM (inactive)
[14]
  GI50: 4.6 µM (inactive)
[15]
  GI50: 0.783 µM (active)
[16]
  GI50: 1.49 µM (inactive)
[17]
  GI50: 0.706 µM (active)
[18]
  GI50: 0.521 µM (active)
[19]
  GI50: 1.7 µM (inactive)
[20]
  GI50: 0.575 µM (active)

## CCC1OC(=O)CC(O)C(C)C(OC2OC(C)CC(N(C)C)C2O)C(CC=O)CC(C)C(=O)/C=C/C2(C)OC2C1C (stereo not given)
[1]
  GI50: 6.62 µM (inactive)
[2]
  GI50: 15.6 µM (inactive)
[3]
  GI50: 23.3 µM (inactive)
[4]
  GI50: 16.5 µM (inactive)
[5]
  GI50: 16.9 µM (inactive)
[6]
  GI50: > 100 µM (inactive)
[7]
  GI50: 14.1 µM (inactive)
[8]
  GI50: 14.4 µM (inactive)
[9]
  GI50: 19 µM (inactive)
[10]
  GI50: 27.9 µM (inactive)
[11]
  GI50: 15.2 µM (inactive)
[12]
  GI50: 31 µM (inactive)
[13]
  GI50: 31.2 µM (inactive)
[14]
  GI50: 31.5 µM (inactive)
[15]
  GI50: 23.2 µM (inactive)
[16]
  GI50: 17.2 µM (inactive)
[17]
  GI50: 15 µM (inactive)
[18]
  GI50: 25.2 µM (inactive)
[19]
  GI50: 19.3 µM (inactive)
[20]
  GI50: 15.8 µM (inactive)

## COc1cccc(-c2cc(=O)c3ccc(C)nc3[nH]2)c1
[1]
  GI50: 0.0388 µM (active)
[2]
  GI50: 1.96 µM (inactive)
[3]
  GI50: 0.0752 µM (active)
[4]
  GI50: 0.0741 µM (active)
[5]
  GI50: 0.0592 µM (active)
[6]
  GI50: 0.0715 µM (active)
[7]
  GI50: 0.0436 µM (active)
[8]
  GI50: 0.0366 µM (active)
[9]
  GI50: 0.214 µM (active)
[10]
  GI50: 0.0401 µM (active)
[11]
  GI50: 0.036 µM (active)
[12]
  GI50: 0.0454 µM (active)
[13]
  GI50: 0.0594 µM (active)
[14]
  GI50: 0.0458 µM (active)
[15]
  GI50: 0.0824 µM (active)
[16]
  GI50: 0.0491 µM (active)
[17]
  GI50: 0.0448 µM (active)
[18]
  GI50: 0.0904 µM (active)
[19]
  GI50: 0.0201 µM (active)
[20]
  GI50: 0.0448 µM (active)
